{"source": "patent US20160022606A1", "about": "“NOVEL THERAPY FOR PROSTATE CARCINOMA” (PELLFICURE PHARMACEUTICALS INC., priority 2013, published 2016)", "key": {"TRAMP-C2 cells": {"system": "TRAMP-C2 cells", "test": "Incidence of MI, AP and PY in TRAMP-C2 cells (H2B-GFP) by fluorescent microscopy", "assay_type": "cell-based, mouse", "settings": "for AP (×10^−3) / MI (×10^−3) / PY (×10^−3): RPMI without phenol red, no FCS", "excerpt": "At each time point, two peripheral and two central ×20 fields of the tumor are captured with a FITC filter and an integrated frame grabber. Only mitotic figures in metaphase-telophase (MI) are included in the mitotic indices to exclude the potential artifact of nuclear membrane distortion. Apoptotic/Pyknotic nuclei are defined as H2B-GFP labeled nuclei with a cross sectional area <30 μm^2. Nuclear karyorrhexis (NK), easily distinguishable by the vesicular nuclear condensation and brightness of H2BGFP, is included within this apoptotic indices.\nFor example, TRAMP-C2 cells (transfected with H2B-GFP) were plated at 2.08×10^4 cells/cm^2 density in complete RPMI medium (10% of heat-inactivated FCS, 10^−8 M DHT, 5 μg/ml insulin, 6 ng/ml EGF, 100 U/ml penicillin, 100 μg/ml streptomycin, 2 mM L-glutamine) and grown at 37° C. in a humidified 5% CO2 atmosphere overnight. The cells were 3× washed with PBS and medium was replaced for RPMI medium without phenol red and without FCS. One set of cells had no DHT, the other set was incubated in the presence of DHT 10^−8 M overnight. 24 h later, the medium was replaced for medium (RPMI without phenol red, no FCS) containing increasing concentrations of plumbagin in the range 0-1 μM with DHT 10^−8 M or without DHT. 24 h later the incidence of MI, AP, and PY was evaluated by fluorescent microscopy."}, "[1]": {"system": "P388 lymphocytic leukemia", "settings": "in vivo; cited from earlier work"}, "[2]": {"assay_type": "physicochemical", "method": "Plumbagin was formulated as an inclusion complex with heptakis(2,6-di-O-methyl)-beta-cyclodextrin. In brief, a super-saturated solution of plumbagin in 0.1M of heptakis(2,6-di-O-methyl)-beta-cyclodextrin was stirred for 72 hours at 25+/−0.5° C. Then the mixture was filtered through a 0.2 µm nylon membrane filter. The concentration of solubilized plumbagin has been determined by UV-VIS spectroscopy (Amax(263 nm and 417 nm))."}, "prostate carcinoma cells": {"system": "prostate carcinoma cells", "settings": "plumbagin 5 umol/L; cited from earlier work"}, "tubulin [3]": {"system": "tubulin", "settings": "Acharya et al., Biochemistry 2008; cited from earlier work"}, "tubulin [4]": {"system": "tubulin", "settings": "Acharya et al., Biochemistry 2008; cited from earlier work", "remark": "listed apart in the source"}, "[5]": {"system": "hormone-refractory prostate cancer", "settings": "Aziz et al., Cancer Res. 2008; cited from earlier work"}, "hepatoma": {"system": "hepatoma", "settings": "in vivo; cited from earlier work"}, "fibrosarcomas": {"system": "fibrosarcomas", "settings": "in vivo; cited from earlier work"}}}
{"smiles": "C[C@]12CCC(=O)C[C@@H]1CC[C@@H]1[C@@H]2CC[C@]2(C)[C@@H](O)CC[C@@H]12", "note": "[DHT, dihydrotestosterone, reference compound]", "values": [{"measurement": "AP (×10^−3)", "setting": "TRAMP-C2 cells; DHT 0.01 μM", "result": "13.8 ×10^−3"}, {"measurement": "MI (×10^−3)", "setting": "TRAMP-C2 cells; DHT 0.01 μM", "result": "4.911 ×10^−3"}, {"measurement": "PY (×10^−3)", "setting": "TRAMP-C2 cells; DHT 0.01 μM", "result": "0.8681 ×10^−3"}]}
{"smiles": "CC1=CC(=O)c2c(O)cccc2C1=O", "note": "[Plumbagin, 5-hydroxy-2-methylnaphthalene-1,4-dione]", "values": [{"measurement": "ED50 anticancer effect toward P388 lymphocytic leukemia", "setting": "[1]", "result": 4, "unit": "mg/kg body weight"}, {"measurement": "K1:1 (phase-solubility diagram analysis)", "setting": "[2]", "result": 485, "unit": "M⁻¹"}, {"measurement": "expression of PKCq, PI3K, AKT, activation of AP-1, NF-κB, Stat3", "setting": "prostate carcinoma cells", "result": "inhibit expression of multiple molecular targets"}, {"measurement": "tubulin binding site", "setting": "tubulin [3]", "result": "recognizes the colchicine binding site of tubulin"}, {"measurement": "in vitro tubulin polymerization", "setting": "tubulin [4]", "result": "inhibits in vitro tubulin polymerization"}, {"measurement": "effect on hormone-refractory prostate cancer", "setting": "[5]", "result": "inhibited growth and invasion of hormone-refractory prostate cancer"}, {"measurement": "effect on hepatoma", "setting": "hepatoma", "result": "induced regression of hepatoma"}, {"measurement": "ED50 anticancer effect toward fibrosarcomas", "setting": "fibrosarcomas", "result": 0.75, "unit": "mg/kg body weight"}, {"measurement": "induction of cell cycle entry / mitosis compared with DHT", "setting": "TRAMP-C2 cells; 0.6 μM of plumbagin vs DHT at 10^−8 M", "result": "much more effectively than DHT at 10^−8 M"}, {"measurement": "AP (×10^−3)", "setting": "TRAMP-C2 cells; plumbagin 0.4 μM, 24 h", "result": "8.852 ×10^−3"}, {"measurement": "MI (×10^−3)", "setting": "TRAMP-C2 cells; plumbagin 0.4 μM, 24 h", "result": "8.89 ×10^−3"}, {"measurement": "PY (×10^−3)", "setting": "TRAMP-C2 cells; plumbagin 0.4 μM, 24 h", "result": "20.495 ×10^−3"}, {"measurement": "AP (×10^−3)", "setting": "TRAMP-C2 cells; plumbagin 0.6 μM, 24 h", "result": "9.371 ×10^−3"}, {"measurement": "MI (×10^−3)", "setting": "TRAMP-C2 cells; plumbagin 0.6 μM, 24 h", "result": "14.81 ×10^−3"}, {"measurement": "PY (×10^−3)", "setting": "TRAMP-C2 cells; plumbagin 0.6 μM, 24 h", "result": "16.76 ×10^−3"}, {"measurement": "AP (×10^−3)", "setting": "TRAMP-C2 cells; plumbagin 0.8 μM, 24 h", "result": "16.11 ×10^−3"}, {"measurement": "MI (×10^−3)", "setting": "TRAMP-C2 cells; plumbagin 0.8 μM, 24 h", "result": "12.7 ×10^−3"}, {"measurement": "PY (×10^−3)", "setting": "TRAMP-C2 cells; plumbagin 0.8 μM, 24 h", "result": "16.73 ×10^−3"}, {"measurement": "AP (×10^−3)", "setting": "TRAMP-C2 cells; plumbagin 1 μM, 24 h", "result": "14.22 ×10^−3"}, {"measurement": "MI (×10^−3)", "setting": "TRAMP-C2 cells; plumbagin 1 μM, 24 h", "result": "7.285 ×10^−3"}, {"measurement": "PY (×10^−3)", "setting": "TRAMP-C2 cells; plumbagin 1 μM, 24 h", "result": "8.244 ×10^−3"}]}
